Counter-ions that a name gives are not always drawn.
Molecular target: T1, KDR (VEGFR2) (Homo sapiens, UniProt P35968)
T1 construct: The 6×-HIS tagged cytoplasmic kinase domain of KDR was expressed and purified from Sf9 insect cell lysates; 6xHis; made in house; host or cells: Sf9 insect cells
Experiment: KDR (VEGFR2) in vitro kinase assay
Format: biochemical
Details: 1 ug enzyme, 1 uM ATP, 30° C., 20 min
Procedure: KDR (VEGFR2) Purification and in vitro Kinase Assay
The 6×-HIS tagged cytoplasmic kinase domain of KDR was expressed and purified from Sf9 insect cell lysates as described above with the following modification:
1× kinase buffer for chromatography washes and elution was changed to 100 mM HEPES pH 7.5, 10 mM MnCl2 and 5 mM β-mercaptoethanol. The resulting material was approximately 40% pure and had tyrosine autophosphorylation activity.
Reactions: 1 ug enzyme in 1×KB, compound dilution series in 1×KB/16% DMSO (20 uM to 1 nM final concentration with 4% DMSO final concentration), reactions were started by adding ATP mix (1 uM ATP/1 uCi ^33P-[…]-ATP final concentrations) in 1×KB.
Reactions were incubated at 30° C. for 20 min. The reactions were stopped and quantitated using standard TCA/BSA precipitation onto Millipore FC glass fiber filter plates and by liquid scintillation counting on a MicroBeta JET.

T1 sequence (P35968 834-1162 limits assumed, species assumed): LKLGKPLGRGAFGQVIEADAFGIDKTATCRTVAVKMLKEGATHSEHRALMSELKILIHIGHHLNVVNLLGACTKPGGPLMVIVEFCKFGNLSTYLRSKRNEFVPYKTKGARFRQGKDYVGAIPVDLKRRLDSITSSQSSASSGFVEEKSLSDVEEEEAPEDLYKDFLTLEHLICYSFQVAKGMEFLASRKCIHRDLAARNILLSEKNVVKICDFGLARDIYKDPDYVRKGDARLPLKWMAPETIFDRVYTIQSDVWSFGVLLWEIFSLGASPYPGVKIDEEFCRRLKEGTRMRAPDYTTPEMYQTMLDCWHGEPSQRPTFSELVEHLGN

Structure (SMILES) | IC50 [µM]
Oc1ccc2c(-c3c(-c4ccccn4)nn4c3CCC4)ccnc2c1 [4-(2-Pyridin-2-yl-5,6-dihydro-4H-pyrrolo[1,2-b]pyrazol-3-yl)-quinolin-7-ol] | < 20
COC(=O)c1ccc2c(-c3c(-c4cccc(C)n4)nn4c3CCC4)ccnc2c1 [4-[2-(6-Methyl-pyridin-2-yl)-5,6-dihydro-4H-pyrrolo[1,2-b]pyrazol-3-yl]-quinoline-7-carboxylic acid methyl ester] | < 20
Cc1cccc(-c2nn3c(c2-c2ccnc4cc(C(=O)NCCCN(C)C)ccc24)CCC3)n1 [4-[2-(6-Methyl-pyridin-2-yl)-5,6-dihydro-4H-pyrrolo[1,2-b]pyrazol-3-yl]-quinoline-7-carboxylic acid (3-dimethylamino-propyl)-amide] | < 20
CN(CCCOc1ccc2c(-c3c(-c4ccccn4)nn4c3CCC4)ccnc2c1)Cc1ccccc1 [Benzyl-methyl-{3-[4-(2-pyridin-2-yl-5,6-dihydro-4H-pyrrolo[1,2-b]pyrazol-3-yl)-quinolin-7-yloxy]-propyl}-amine] | < 20
c1ccc(-c2nn3c(c2-c2ccnc4ccccc24)OCC3)nc1 [4-(6-Pyridin-2-yl-2,3-dihydro-pyrazolo[5,1-b]oxazol-7-yl)-quinoline dioxylate salt] | < 20
Cc1cccc(-c2nn3c(c2-c2ccnc4cc(OCCCN5CCOCC5)ccc24)CCC3)n1 [4-[2-(6-Methyl-pyridin-2-yl)-5,6-dihydro-4H-pyrrolo[1,2-b]pyrazol-3-yl]-7-(3-morpholin-4-yl-propoxy)-quinoline] | < 20
NCCCOc1ccc2c(-c3c(-c4ccccn4)nn4c3CCC4)ccnc2c1 [3-[4-(2-pyridin-2-yl-5,6-dihydro-4H-pyrrolo[1,2-b]pyrazol-3-yl)-quinolin-7-yloxy]-propylamine] | < 20
CC(=O)NCCNC(=O)c1ccc2c(-c3c(-c4ccccn4)nn4c3CCC4)ccnc2c1 [4-(2-Pyridin-2-yl-5,6-dihydro-4H-pyrrolo[1,2-b]pyrazol-3-yl)-quinoline-7-carboxylic acid (2-acetylamino-ethyl)-amide] | < 20
CCN(CC)CCCOc1ccc2c(-c3c(-c4cccc(C)n4)nn4c3CCC4)ccnc2c1 [Diethyl-(3-{4-[2-(6-methyl-pyridin-2-yl)-5,6-dihydro-4H-pyrrolo[1,2-b]pyrazol-3-yl]-quinolin-7-yloxy}-propyl)-amine] | < 20
c1ccc(-c2nn3c(c2-c2ccnc4cc(OCCCN5CCCC5)ccc24)CCC3)nc1 [4-(2-Pyridin-2-yl-5,6-dihydro-4H-pyrrolo[1,2-b]pyrazol-3-yl)-7-(3-pyrrolidin-1-yl-propoxy)-quinoline] | < 20
c1ccc(-c2nn3c(c2-c2ccnc4cc(OCCCn5ccnn5)ccc24)CCC3)nc1 [4-(2-Pyridin-2-yl-5,6-dihydro-4H-pyrrolo[1,2-b]pyrazol-3-yl)-7-(3-[1,2,3]triazol-1-yl-propoxy)-quinoline] | < 20

Test system: TGF-β dependent luciferase production in Mv1Lu C1 cells (p3TP-Lux reporter)
Experiment: MV1LU p3TP-Lux assay
Format: cell-based
Details: TGF-β1 10 pM, 16-20 hrs
Text: A stable Mv1Lu clone (C1) containing the p3TP-Lux reporter was created by standard transfection and puromycin selection protocols. This stable clone was used to screen the example compounds for their ability to inhibit TGF-β dependent luciferase production as briefly described below: • 1. Plated Mv1Lu C1 cells in Wallac™ Black Isoplates • 2. Allowed cells to adhere overnight. • 3. Removed media and replaced with 0.5% FBS DMEM media • 4. Added the compound dilution series in 0.5% FBS/DMEM containing 1% DMSO such that the final compound concentration ranged from 20 uM to 0.1 nM and the final DMSO concentration was 0.2%. • 5. Incubated at 37° C./5% CO2 for 2 hrs. • 6. Added 0.5% FBS/DMEM as control or TGF-β1 diluted in 0.5% FBS/DMEM (final concentration of 10 pM) to the −/+ TGF-β wells respectively • 7. Incubated for 16-20 hrs. at 37° C./5% CO2 • 8. Removed media and rinsed 1× with PBS. • 9. Removed PBS and lysed the cells with 1× Passive Lysis Buffer (Promega) at room temperature. • 10. Counted relative luciferase activity on the MicroBeta JET by injecting Luciferase Assay Reagent II (PROMEGA).
The use of the above assay in measuring TGF-β responsive activity is described in Wrana, et al. Cell 71: 1003-1014 (1992).

Structure (SMILES) | IC50 [µM]
Cc1cccc(-c2nn3c(c2-c2ccnc4c(F)cccc24)CCC3)n1 [8-Fluoro-4-[2-(6-methyl-pyridin-2-yl)-5,6-dihydro-4H-pyrrolo[1,2-b]pyrazol-3-yl]-quinoline] | < 20
COC(=O)c1ccc2nccc(-c3c(-c4cccc(C)n4)nn4c3CCC4)c2c1 [4-[2-(6-Methyl-pyridin-2-yl)-5,6-dihydro-4H-pyrrolo[1,2-b]pyrazol-3-yl]-quinoline-6-carboxylic acid methyl ester] | < 20
Cc1cccc(-c2nn3c(c2-c2ccnc4ccc(C(C)(C)O)cc24)CCC3)n1 [2-{4-[2-(6-Methyl-pyridin-2-yl)-5,6-dihydro-4H-pyrrolo[1,2-b]pyrazol-3-yl]-quinolin-6-yl}-propan-2-ol] | < 20
Cc1cccc(-c2nn3c(c2-c2ccnc4cc(OCCCCl)ccc24)CCC3)n1 [7-(3-chloro-propoxy)-4-[2-(6-methyl-pyridin-2-yl)-5,6-dihydro-4H-pyrrolo[1,2-b]pyrazol-3-yl]-quinoline] | < 20
c1ccc(-c2nn3c(c2-c2ccnc4cc(OCCCN5CCCCCC5)ccc24)CCC3)nc1 [7-(3-azepan-1-yl-propoxy)-4-(2-pyridin-2-yl-5,6-dihydro-4H-pyrrolo[1,2-b]pyrazol-3-yl)-quinoline] | < 20
Cc1cccc(-c2nn3c(c2-c2cccc4ccccc24)CCC3)n1 [2-(6-methyl-pyridin-2-yl)-3-naphthalen-1-yl-5,6-dihydro-4H-pyrrolo[1,2-b]pyrazole] | < 20
Clc1cc(-c2c(-c3ccccn3)nn3c2CCC3)ccn1 [3-(2-Chloro-pyridin-4-yl)-2-pyridin-2-yl-5,6-dihydro-4H-pyrrolo[1,2-b]pyrazole] | < 20
NNC(=O)c1ccc2nccc(-c3c(-c4ccccn4)nn4c3CCC4)c2c1 [4-(2-Pyridin-2-yl-5,6-dihydro-4H-pyrrolo[1,2-b]pyrazol-3-yl)-quinoline-6-carboxylic acid hydrazide] | < 20
OCc1cccc(-c2nn3c(c2-c2ccnc4ccccc24)CCC3)n1 [[6-(3-Quinolin-4-yl-5,6-dihydro-4H-pyrrolo[1,2-b]pyrazol-2-yl)-pyridin-2-yl]-methanol] | < 20
Cc1cccc(-c2nn3c(c2-c2ccnc4cc(CCC(=O)N(C)C)ccc24)CCC3)n1 [N,N-Dimethyl-3-{4-[2-(6-methyl-pyridin-2-yl)-5,6-dihydro-4H-pyrrolo[1,2-b]pyrazol-3-yl]-quinolin-7-yl}-propionamide] | < 20
Cc1cccc(-c2nn3c(c2-c2ccnc4ccccc24)CC(c2ccc(F)cc2)C3)n1 (single isomer, unassigned) [4-[5-(4-Fluoro-phenyl)-2-(6-methyl-pyridin-2-yl)-5,6-dihydro-4H-pyrrolo[1,2-b]pyrazol-3-yl]-quinoline] | < 20
Cc1cccc(-c2nn3c(c2-c2ccnc4ccc(-c5ccc6c(c5)OCO6)cc24)CCC3)n1 [6-Benzo[1,3]dioxol-5-yl-4-[2-(6-methyl-pyridin-2-yl)-5,6-dihydro-4H-pyrrolo[1,2-b]pyrazol-3-yl]-quinoline] | < 20
Cc1cccc(-c2nn3c(c2-c2ccc(F)cc2)CC(c2ccc(Cl)cc2)C3)n1 (stereo not shown) [5-(4-Chloro-phenyl)-3-(4-fluoro-phenyl)-2-(6-methyl-pyridin-2-yl)-5,6-dihydro-4H-pyrrolo[1,2-b]pyrazole] | < 20
OCC1CCc2c(-c3ccnc4ccccc34)c(-c3ccccn3)nn21 (stereo not shown) [4-(6-Hydroxymethyl-2-pyridin-2-yl-5,6-dihydro-4H-pyrrolo[1,2-b]pyrazol-3yl)-quinoline] | < 20

Source: patent US7087626B2, “Pyrrole derivatives as pharmaceutical agents” (Eli Lilly and Company, priority 2001, dated 2006)
